Reference: patent US11040038B2, “Methods for treating diseases associated with abnormal ACVR1 expression and ACVR1 inhibitors for use in the same” (Sumitomo Dainippon Pharma Oncology, Inc., priority 2018, dated 2021)
Like-named read-outs stand apart in the source and are kept apart here.

Experiments:
[1] = Pharmacokinetics and relative bioavailability after a single oral dose (two liquid formulations, powder in capsule); format: in vivo, male Beagle dogs; conditions: male, Beagle, dog, plasma, po; for AUC(0-t): read-out: AUC0-TLast; for CL/F: read-out: CL/F (converted); for Vd/F: read-out: Vz/F
Text: The purpose of the study is to dose two suspension formulations of Compound 2 at two dose levels by gavage to Beagle dogs and to collect blood samples for the determination of plasma concentrations, derivation of pharmacokinetic parameters and to determine the relative bioavailability of the two suspension formulations. The pharmacokinetics of Compound 2 would be evaluated following oral administration in capsules and the relative bioavailability of this dosage form to the oral liquid formulations was determined.
This study involves the dosing of the test item by the oral route over three periods separated by a 7 days washout period as outlined in Table 43, Table 44, and Table 45. The third period of the study outlined in Table 45 is considered to be optional and will only be performed at the Sponsor's request. Prior to the day of dosing, food will be removed from the dogs at 4:00 pm and reintroduced 2 hrs after dosing.
For oral administration of the formulations, the test item was administered via a stomach tube followed by the administration of 10 mL of tap water. For oral administration of capsules, the capsule was placed on the back of the tongue to encourage swallowing followed by administration of 10 mL of tap water. The oral cavity was then be inspected to make sure the capsule was swallowed. The actual volume of dosing formulation administered will be calculated based on the animal's most recently scheduled body weight.
The pharmacokinetic parameters for Compound 2 in solution as Formulation #1 (Table 43) and Formulation #2 (Table 44) along with data for the dosing of Compound 2 powder in capsule (Table 45) are presented in Table 46.

[2] = Oral pharmacokinetics in a single human DIPG patient; format: in vivo; conditions: free base, nominal 240 mg/m2 PO
Method: Compound 2 free base was tested in humans. Oral pharmacokinetics of Compound 2 were determined in a single human patient for the treatment of DIPG. The formulation was free base Compound 2 by gelatin capsule daily for 15 days, followed by a 20-day suspension period. Dosing was resumed by dissolving in juice and administering via nasogastric tube for 9 days. The nominal dose is 240 mg/m2 (PO). Blood samples were collected at four (4) time points and the drug concentrations are determined by LC-MS/MS.
Additional PK parameters were evaluated.

[3] = 2 mg/kg, Formulation #1 (Table 43), 2 mg/kg oral, male Beagle dogs, individual dog
[4] = 2 mg/kg, Formulation #1 (Table 43), 2 mg/kg oral, male Beagle dogs, Mean
[5] = 2 mg/kg, Formulation #2 (Table 44), 2 mg/kg oral, male Beagle dogs, Mean
[6] = 2 mg/kg, Formulation #2 (Table 44), 2 mg/kg oral, male Beagle dogs, individual dog
[7] = 2 mg/kg, Powder in Capsule (Table 45), 2 mg/kg oral, male Beagle dogs, Mean
[8] = 2 mg/kg, Powder in Capsule (Table 45), 2 mg/kg oral, male Beagle dogs, individual dog
[9] = 5 mg/kg, Formulation #1 (Table 43), 5 mg/kg oral, male Beagle dogs, Mean
[10] = 5 mg/kg, Formulation #1 (Table 43), 5 mg/kg oral, male Beagle dogs, individual dog
[11] = 5 mg/kg, Formulation #2 (Table 44), 5 mg/kg oral, male Beagle dogs, Mean
[12] = 5 mg/kg, Formulation #2 (Table 44), 5 mg/kg oral, male Beagle dogs, individual dog
[13] = 5 mg/kg, Powder in Capsule (Table 45), 5 mg/kg oral, male Beagle dogs, Mean
[14] = 5 mg/kg, Powder in Capsule (Table 45), 5 mg/kg oral, male Beagle dogs, individual dog

Tmax [1, 3]: 5 h
half-life [1, 3]: 6 h
AUC(0-t) [1, 4]: 70 ng·h/mL
CL/F [1, 4]: 483 mL/min/kg
Cmax ([1]; 2 mg/kg, Formulation #1 (Table 43), 2 mg/kg oral, male Beagle dogs, Mean, read-out: Cmax): 6.78 ng/mL
Vd/F [1, 4]: 237 L/kg
AUC(0-t) [1, 3]: 45 ng·h/mL
CL/F [1, 3]: 683 mL/min/kg
Cmax ([1]; 2 mg/kg, Formulation #1 (Table 43), 2 mg/kg oral, male Beagle dogs, individual dog, read-out: Cmax): 4.37 ng/mL
AUC(0-inf) [1, 5]: 105 ng·h/mL
Tmax [1, 5]: 4.7 h
half-life [1, 5]: 4.7 h
Tmax [1, 6]: 4 h
half-life [1, 6]: 3.9 h
AUC(0-t) [1, 5]: 102 ng·h/mL
CL/F [1, 5]: 400 mL/min/kg
Cmax ([1]; 2 mg/kg, Formulation #2 (Table 44), 2 mg/kg oral, male Beagle dogs, Mean, read-out: Cmax): 11.6 ng/mL
Vd/F [1, 5]: 177 L/kg
AUC(0-inf) [1, 7]: 90 ng·h/mL
Tmax [1, 7]: 3 h
half-life [1, 7]: 2.3 h
Tmax [1, 8]: 3 h
half-life [1, 8]: 2.4 h
AUC(0-t) [1, 7]: 71 ng·h/mL
CL/F [1, 7]: 417 mL/min/kg
Cmax ([1]; 2 mg/kg, Powder in Capsule (Table 45), 2 mg/kg oral, male Beagle dogs, Mean, read-out: Cmax): 14.9 ng/mL
Vd/F [1, 7]: 85 L/kg
Cmax ([1]; 5 mg/kg, 5 mg/kg oral, range across Formulation #1, #2 and powder in capsules, read-out: mean Cmax): 22.2 to 27.8 ng/mL
AUC(0-inf) [1, 9]: 294 ng·h/mL
Tmax [1, 9]: 3.7 h
half-life [1, 9]: 5.1 h
Tmax [1, 10]: 4 h
half-life [1, 10]: 6 h
AUC(0-t) [1, 9]: 280 ng·h/mL
CL/F [1, 9]: 333 mL/min/kg
Cmax ([1]; 5 mg/kg, Formulation #1 (Table 43), 5 mg/kg oral, male Beagle dogs, Mean, read-out: Cmax): 27.8 ng/mL
Vd/F [1, 9]: 147 L/kg
AUC(0-inf) [1, 11]: 221 ng·h/mL
Tmax [1, 11]: 3.7 h
half-life [1, 11]: 4.9 h
Tmax [1, 12]: 3 h
half-life [1, 12]: 5.4 h
AUC(0-t) [1, 11]: 211 ng·h/mL
CL/F [1, 11]: 450 mL/min/kg
Cmax ([1]; 5 mg/kg, Formulation #2 (Table 44), 5 mg/kg oral, male Beagle dogs, Mean, read-out: Cmax): 22.2 ng/mL
Vd/F [1, 11]: 188 L/kg
AUC(0-inf) [1, 13]: 160 ng·h/mL
Tmax [1, 13]: 4.3 h
half-life [1, 13]: 3.1 h
AUC(0-inf) [1, 14]: 215 ng·h/mL
Tmax [1, 14]: 3 h
half-life [1, 14]: 2.7 h
AUC(0-t) [1, 13]: 146 ng·h/mL
CL/F [1, 13]: 550 mL/min/kg
Cmax ([1]; 5 mg/kg, Powder in Capsule (Table 45), 5 mg/kg oral, male Beagle dogs, Mean, read-out: Cmax): 25.6 ng/mL
Vd/F [1, 13]: 147 L/kg
AUC(0-t) [1, 14]: 191 ng·h/mL
CL/F [1, 14]: 383 mL/min/kg
Tmax ([1]; 5 mg/kg, beagle dogs, range across formulations at both doses (2 and 5 mg/kg)): 3 to 4.7 h
Oral absorption, detection in plasma [2]: detected in plasma 24 hours post-dosing
SMILES: COc1cc(Nc2nccc(Nc3cccnc3-c3ccccn3)n2)ccc1N1CCN(C)CC1 [Compound 2, N^4-(2,2′-bipyridin-3-yl)-N^2-(3-methoxy-4-(4-methylpiperazin-1-yl)phenyl)pyrimidine-2,4-diamine]
